Results taken from patent publication US20260217701A1, “SELECTIVE BET INHIBITORS AND USES THEREOF” (Tay Therapeutics Limited, priority 2022, published 2026).
Several values for one entry are separate records, joined by “and”; a condition that tells them apart may be missing. Identical values can stand only once.

Test system: imiquimod-induced psoriasis
Assay: Imiquimod-induced psoriasis model
Format: in vivo, mice
Design: Spleen Weight / Spleen Weight Ratio: unit not given here
Conditions: for PASI Scores: IMI + Apremilast 3 mg/kg; for Mean scores of the presence of erythema on the skin of animals at the area of induction of psoriasis / Mean scores of the presence of induration on the skin of animals at the area of induction of psoriasis / Mean scores of the presence of peeling on the skin of animals at the area of induction of psoriasis: mean ± SEM
Source text: Imiquimod-induced psoriasis is a model of psoriasis in mice that induces psoriasis-like dermatitis. The pathology closes resembles human plaque-type psoriasis and is a valuable tool for testing new therapies against psoriasis. […] Compound A was formulated in a 5% DMSO/40% PEG-400/55% (0.9% NaCl w/v water) solution (Table 2F). Experimental groups for the study are outlined in Table 4. Prior to study initiation, the backs of all animals in the study were depilated to allow for induction of psoriasis and monitoring of disease progression.
Once assigned to experimental groups, on Day 1 and continuing through Day 14, topical imiquimod (IMI; Aldara™ containing 5% Imiquimod) was administered to the dorsal depilated animals, and animals in group 1 received topical administration of Excipial® hydrocream (65 mg). […] Clobetasol was applied topically for animals in group 11.
Body weights were recorded three times a week from Day 1 to Day 8, and daily from Day 8 until the study end at Day 15. At termination on D15 the spleen weight ratio was determined. Disease severity was assessed using the psoriasis area severity index (PASI) daily from Day 8 until study completion on Day 15. The PASI score was calculated based on three parameters (presence of erythema, induration of the skin, and peeling of the skin at the area of induction) on a scale of 0 to 4 (0=no more or absence, 1=low, 2=moderate, 3=high, 4=severe). The PASI score for each animal was calculated as the sum of the score of each parameter measured. The score of the use of enrichment (SUE) was also assessed daily from Day 8 to Day 15. At study completion on Day 15, animal behavior was evaluated using an open field to assess distance travelled, number scratching, and licking and rearing performed in 10 minutes. Upon study termination animals were sacrificed, the spleen was excised and weighed, and blood samples were collected. Serum was isolated from the blood sample for cytokine and other biomarker analysis. IL-1B, IL-6, IL-17, and TNF-α assayed using simple plex technique on an ELLA automated immunoassay system. IL-22 and IL-23 were assayed by ELISA.
The imiquimod-induced model of psoriasis was used to assess the efficacy of Compound A in treating psoriasis. […] Treatment started on Day 8 after induction so reference to day 1 of treatment is to Day 8 and day 7 of treatment is to Day 14.

[1] = IMI-psoriasis model, behavioral evaluation D15, 3 mg/kg, individual animals
[2] = IMI-psoriasis model, behavioral evaluation, 3 mg/kg, individual animals
[3] = IMI-psoriasis model, mice, 3 mg/kg, individual animals
[4] = IMI + 3 mg/kg, D8 (before start of treatment)

CCOc1cc([C@@H](CS(C)(=O)=O)N2C(=O)c3cccc(NC(C)=O)c3C2=O)ccc1OC [Apremilast, reference compound]
Body Weight D1 (IMI + 3 mg/kg, Day 1 (before treatment start on Day 8), individual animals, 3 mg/kg, in g (unit assumed)): 18.04 and 18.00 and 18.05 and 18.89 and 15.16 and 17.91 and 18.62 and 18.72
Body Weight D3 (IMI + 3 mg/kg, Day 3 (before treatment start on Day 8), individual animals, 3 mg/kg, in g (unit assumed)): 15.91 and 16.38 and 17.39 and 17.17 and 13.24 and 16.46 and 17.63 and 16.03
Body Weight D5 (IMI + 3 mg/kg, Day 5 (before treatment start on Day 8), individual animals, 3 mg/kg, in g (unit assumed)): 16.70 and 17.24 and 17.88 and 17.91 and 13.95 and 16.38 and 17.65 and 16.94
Body Weight D7 (IMI + 3 mg/kg, Day 7 (before treatment start on Day 8), individual animals, 3 mg/kg, in g (unit assumed)): 16.55 and 16.74 and 17.25 and 17.69 and 15.07 and 16.92 and 17.97 and 17.32
Body Weight D8 (IMI + 3 mg/kg, Day 8 (first day of treatment), individual animals, 3 mg/kg, in g (unit assumed)): 16.41 and 16.59 and 17.27 and 17.43 and 13.81 and 17.05 and 17.50 and 16.19
Body Weight D9 (IMI + 3 mg/kg, Day 9, individual animals, 3 mg/kg): 16.75 and 17.41 (2×) and 17.44 and 17.12 and 13.85 and 17.04 and 16.34
Body Weight D10 (IMI + 3 mg/kg, Day 10, individual animals, 3 mg/kg, in g (unit assumed)): 17.13 and 17.32 and 17.55 and 17.39 and 13.82 and 17.24 and 17.62 and 17.09
Body Weight D11 (IMI + 3 mg/kg, Day 11, individual animals, 3 mg/kg, in g (unit assumed)): 16.87 and 17.60 and 17.50 and 17.32 and 14.44 and 17.59 and 17.99 and 17.89
Body Weight D12 (IMI + 3 mg/kg, Day 12, individual animals, 3 mg/kg, in g (unit assumed)): 17.32 and 18.46 and 17.58 and 17.84 and 14.88 and 18.39 and 18.34 and 18.22
Body Weight D13 (IMI + 3 mg/kg, Day 13, individual animals, 3 mg/kg, in g (unit assumed)): 17.57 and 18.62 and 18.39 and 18.19 and 14.70 and 18.17 and 18.61 and 18.32
Body Weight D14 (IMI + 3 mg/kg, Day 14, individual animals, 3 mg/kg, in g (unit assumed)): 17.89 and 18.64 and 18.56 and 18.40 and 15.26 and 17.85 and 18.49 and 18.20
Body Weight D15 (IMI + 3 mg/kg, Day 15, individual animals, 3 mg/kg): 18.27 and 18.85 (2×) and 18.94 and 15.48 and 18.37 and 18.62 and 18.57
MBWC D1-D8 (IMI + 3 mg/kg, body weight change Day 1 to Day 8 (before treatment), individual animals, 3 mg/kg): −1.63 and −1.41 and −0.78 and −1.46 and −1.35 and −0.86 and −1.12 and −2.53
MBWC D8-D15 (IMI + 3 mg/kg, body weight change Day 8 to Day 15 (treatment period), individual animals, 3 mg/kg): 1.86 and 2.26 and 1.67 (2×) and 1.42 and 1.32 and 1.12 and 2.38
PASI Scores (D8 (day treatment started), individual animals): 9 and 7 (4×) and 8 (2×) and 6
PASI Scores (D9, individual animals): 8 and 5 (2×) and 7 and 6 (3×) and 4
PASI Scores (D10, individual animals): 6 (2×) and 7 (2×) and 4 (4×)
PASI Scores (D11, individual animals): 5 (4×) and 4 (4×)
PASI Scores (D12, individual animals): 3 (4×) and 5 and 2 (2×) and 1
PASI Scores (D13, individual animals): 1 (3×) and 0 (3×) and 2 (2×)
PASI Scores (D14, individual animals): 2 and 0 (3×) and 1 (4×)
PASI Scores (D15, individual animals): 1 (3×) and 0 (5×)
Use Enrichment D1 (IMI-psoriasis model, D1, 3 mg/kg, per cage (two animals)): 4.0
Use Enrichment D10 (IMI-psoriasis model, D10, 3 mg/kg, per cage (two animals)): 2.5 and 3.0 and 2.0
Use Enrichment D11 (IMI-psoriasis model, D11, 3 mg/kg, per cage (two animals)): 3.5 and 4.0 and 3.0
Use Enrichment D12 (IMI-psoriasis model, D12, 3 mg/kg, per cage (two animals)): 3.5 and 2.5 and 3.0
Use Enrichment D13 (IMI-psoriasis model, D13, 3 mg/kg, per cage (two animals)): 4.0
Use Enrichment D14 (IMI-psoriasis model, D14, 3 mg/kg, per cage (two animals)): 4.0
Use Enrichment D15 (IMI-psoriasis model, D15, 3 mg/kg, per cage (two animals)): 4.0
Number Licking [1]: 4 (2×) and 5 and 1 and 2 (2×) and 3 (2×)
Number Licking + Scratching [1]: 5 and 6 and 1 and 2 (2×) and 7 and 3 (2×)
Number Scratching [1]: 1 (2×) and 0 (5×) and 3
Distance Traveled [2]: 10 m and 13 m and 8 m and 11 m (2×) and 17 m and 9 m and 15 m
Number Rearings [2]: 20 and 58 and 21 and 42 and 81 and 13 and 60 and 12
Use Enrichment Mean D1-D8 (IMI-psoriasis model, mean D1-D8, 3 mg/kg, per cage (two animals)): 2.50 and 2.00
Use Enrichment Mean D8-D15 (IMI-psoriasis model, mean D8-D15, 3 mg/kg, per cage (two animals)): 3.07 and 3.36 and 2.93
Spleen Weight [3]: 180.97 and 286.06 and 424.79 and 208.70 and 207.33 and 227.51 and 223.09 and 221.44
Spleen Weight Ratio [3]: 990.53 and 1517.56 and 2242.82 and 1107.16 and 1339.34 and 1238.49 and 1198.12 and 1192.46
Mean scores of the presence of erythema on the skin of animals at the area of induction of psoriasis [4]: 2.1 ± 0.1
Mean scores of the presence of induration on the skin of animals at the area of induction of psoriasis [4]: 3.0 ± 0.0
Mean scores of the presence of peeling on the skin of animals at the area of induction of psoriasis [4]: 2.5 ± 0.2
Mean scores of the presence of erythema on the skin of animals at the area of induction of psoriasis (IMI + 3 mg/kg, D9): 1.5 ± 0.2
Mean scores of the presence of induration on the skin of animals at the area of induction of psoriasis (IMI + 3 mg/kg, D9): 2.3 ± 0.2
Mean scores of the presence of peeling on the skin of animals at the area of induction of psoriasis (IMI + 3 mg/kg, D9): 2.1 ± 0.2
Mean scores of the presence of erythema on the skin of animals at the area of induction of psoriasis (IMI + 3 mg/kg, D10): 1.6 ± 0.2
Mean scores of the presence of induration on the skin of animals at the area of induction of psoriasis (IMI + 3 mg/kg, D10): 2.0 ± 0.2
Mean scores of the presence of peeling on the skin of animals at the area of induction of psoriasis (IMI + 3 mg/kg, D10): 1.6 ± 0.3
Mean scores of the presence of erythema on the skin of animals at the area of induction of psoriasis (IMI + 3 mg/kg, D11): 1.4 ± 0.2
Mean scores of the presence of induration on the skin of animals at the area of induction of psoriasis (IMI + 3 mg/kg, D11): 1.8 ± 0.2
Mean scores of the presence of peeling on the skin of animals at the area of induction of psoriasis (IMI + 3 mg/kg, D11): 1.4 ± 0.2
Mean scores of the presence of erythema on the skin of animals at the area of induction of psoriasis (IMI + 3 mg/kg, D12): 0.75 ± 0.2
Mean scores of the presence of induration on the skin of animals at the area of induction of psoriasis (IMI + 3 mg/kg, D12): 0.9 ± 0.2
Mean scores of the presence of peeling on the skin of animals at the area of induction of psoriasis (IMI + 3 mg/kg, D12): 1.1 ± 0.1
Mean scores of the presence of erythema on the skin of animals at the area of induction of psoriasis (IMI + 3 mg/kg, D13): 0.3 ± 0.2
Mean scores of the presence of induration on the skin of animals at the area of induction of psoriasis (IMI + 3 mg/kg, D13): 0.4 ± 0.2
Mean scores of the presence of peeling on the skin of animals at the area of induction of psoriasis (IMI + 3 mg/kg, D13): 0.3 ± 0.2
Mean scores of the presence of erythema on the skin of animals at the area of induction of psoriasis (IMI + 3 mg/kg, D14): 0.0 ± 0.0
Mean scores of the presence of induration on the skin of animals at the area of induction of psoriasis (IMI + 3 mg/kg, D14): 0.4 ± 0.2
Mean scores of the presence of peeling on the skin of animals at the area of induction of psoriasis (IMI + 3 mg/kg, D14): 0.4 ± 0.2
Mean scores of the presence of erythema on the skin of animals at the area of induction of psoriasis (IMI + 3 mg/kg, D15): 0.1 ± 0.1
Mean scores of the presence of induration on the skin of animals at the area of induction of psoriasis (IMI + 3 mg/kg, D15): 0.1 ± 0.1
Mean scores of the presence of peeling on the skin of animals at the area of induction of psoriasis (IMI + 3 mg/kg, D15): 0.1 ± 0.1
Mean PASI Scores in IMI-Psoriasis Model (mice, IMI + 3 mg/kg, D8 (before start of treatment)): 7.4 ± 0.3
Mean PASI Scores in IMI-Psoriasis Model (mice, IMI + 3 mg/kg, D9): 5.9 ± 0.4
Mean PASI Scores in IMI-Psoriasis Model (mice, IMI + 3 mg/kg, D10): 5.3 ± 0.5
Mean PASI Scores in IMI-Psoriasis Model (mice, IMI + 3 mg/kg, D11): 4.5 ± 0.2
Mean PASI Scores in IMI-Psoriasis Model (mice, IMI + 3 mg/kg, D12): 2.8 ± 0.4
Mean PASI Scores in IMI-Psoriasis Model (mice, IMI + 3 mg/kg, D13): 0.9 ± 0.3
Mean PASI Scores in IMI-Psoriasis Model (mice, IMI + 3 mg/kg, D14): 0.8 ± 0.3
Mean PASI Scores in IMI-Psoriasis Model (mice, IMI + 3 mg/kg, D15): 0.4 ± 0.2
